These molecules were tested against MCH receptor (Homo sapiens, UniProt Q99705) (assay: High throughput functional screening FLIPR/FDSS6000: inhibition of MCH-evoked intracellular Ca2+ changes). Settings: class by percent of control at 10^-7 M or by IC50; read-out: class.
Type: cell-based
How it was run: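 Constitutively active non-endogenous MCH-R cells; Fluo4-AM 4 μM, 2.5 mM probenecid, 1 hr, 37° C; cpd 3 min, 37° C; MCH 50 nM (antagonist mode); kinetic Ca2+ read Ex488/Em530, 290 s.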

CCc1ccccc1NC(=O)N[C@H]1CC[C@@H](Nc2nc(N(C)C)c3ccccc3n2)CC1 [compound 95, N-(cis-4-{[4-(dimethylamino)quinazolin-2-yl]amino}cyclohexyl)-N′-(2-ethylphenyl)urea] and CCCc1ccccc1NC(=O)N[C@H]1CC[C@@H](Nc2nc(N(C)C)c3ccccc3n2)CC1 [compound 114, N-(cis-4-{[4-(dimethylamino)quinazolin-2-yl]amino}cyclohexyl)-N′-(2-propylphenyl)urea] cannot be ordered by IC50: under 50 nM for the first, under 50 nM for the second.

CN(C)c1nc(N[C@H]2CC[C@@H](NC(=O)Nc3cccc(C(F)(F)F)c3F)CC2)nc2ccccc12 [compound 96] and CN(C)c1nc(N[C@H]2CC[C@@H](NC(=O)Nc3cc(C(F)(F)F)ccc3F)CC2)nc2ccccc12 [compound 97, N-(cis-4-{[4-(dimethylamino)quinazolin-2-yl]amino}cyclohexyl)-N′-[2-fluro-5-(trifluoromethyl)phenyl]urea] cannot be ordered by IC50: over 200 nM for the first, over 200 nM for the second.

Compared with Cc1ccc(F)c(NC(=O)N[C@H]2CC[C@@H](Nc3nc(N(C)C)c4ccccc4n3)CC2)c1 [compound 98, N-(cis-4-{[4-(dimethylamino)quinazolin-2-yl]amino}cyclohexyl)-N′-(2-fluro-5-methylphenyl)urea], COc1ccc(C)cc1NC(=O)N[C@H]1CC[C@@H](Nc2nc(N(C)C)c3ccccc3n2)CC1 [compound 105, N-(cis-4-{[4-(dimethylamino)quinazolin-2-yl]amino}cyclohexyl)-N′-(2-methoxy-5-methylphenyl)urea] is lower in IC50: over 200 nM for the first, 50 to 200 nM for the second. The second is the more potent here.

Going from CN(C)c1nc(N[C@H]2CC[C@@H](NC(=O)Nc3cc([N+](=O)[O-])ccc3F)CC2)nc2ccccc12 [compound 99] to Cc1ccc([N+](=O)[O-])cc1NC(=O)N[C@H]1CC[C@@H](Nc2nc(N(C)C)c3ccccc3n2)CC1 [compound 109, N-(cis-4-{[4-(dimethylamino)quinazolin-2-yl]amino}cyclohexyl)-N′-(2-methyl-5-nitrophenyl)urea], the IC50 falls from over 200 nM to under 50 nM. The second is the more potent here.

CN(C)c1nc(N[C@H]2CC[C@@H](NC(=O)NCc3ccccc3F)CC2)nc2ccccc12 [compound 100, N-(cis-4-{[4-(dimethylamino)quinazolin-2-yl]amino}cyclohexyl)-N′-(2-fluorobenzyl)urea] and Cc1ccccc1CNC(=O)N[C@H]1CC[C@@H](Nc2nc(N(C)C)c3ccccc3n2)CC1 [compound 111, N-(cis-4-{[4-(dimethylamino)quinazolin-2-yl]amino}cyclohexyl)-N′-(2-methylbenzyl)urea] cannot be ordered by IC50: under 50 nM for the first, under 50 nM for the second.

CN(C)c1nc(N[C@H]2CC[C@@H](NC(=O)Nc3ccccc3I)CC2)nc2ccccc12 [compound 101, N-(cis-4-{[4-(dimethylamino)quinazolin-2-yl]amino}cyclohexyl)-N′-(2-iodophenyl)urea] and CC(C)c1ccccc1NC(=O)N[C@H]1CC[C@@H](Nc2nc(N(C)C)c3ccccc3n2)CC1 [compound 103, N-(cis-4-{[4-(dimethylamino)quinazolin-2-yl]amino}cyclohexyl)-N′-(2-isopropylphenyl)urea] cannot be ordered by IC50: under 50 nM for the first, under 50 nM for the second.

Cc1cccc(C(C)C)c1NC(=O)N[C@H]1CC[C@@H](Nc2nc(N(C)C)c3ccccc3n2)CC1 [compound 102, N-(cis-4-{[4-(dimethylamino)quinazolin-2-yl]amino}cyclohexyl)-N′-(2-isopropyl-6-methylphenyl)urea] and Cc1cccc(C(C)(C)C)c1NC(=O)N[C@H]1CC[C@@H](Nc2nc(N(C)C)c3ccccc3n2)CC1 [compound 116, N-(2-tert-butyl-6-methylphenyl)-N′-(cis-4-{[4-(dimethylamino)quinazolin-2-yl]amino}cyclohexyl)urea] cannot be ordered by IC50: under 50 nM for the first, under 50 nM for the second.

First: COc1cc([N+](=O)[O-])ccc1NC(=O)N[C@H]1CC[C@@H](Nc2nc(N(C)C)c3ccccc3n2)CC1 [compound 104, N-(cis-4-{[4-(dimethylamino)quinazolin-2-yl]amino}cyclohexyl)-N′-(2-methoxy-4-nitrophenyl)urea]
Second: COc1ccc([N+](=O)[O-])cc1NC(=O)N[C@H]1CC[C@@H](Nc2nc(N(C)C)c3ccccc3n2)CC1 [compound 106]
The IC50 of the first is lower: 50 to 200 nM for the first, over 200 nM for the second.

Going from Cc1c(NC(=O)N[C@H]2CC[C@@H](Nc3nc(N(C)C)c4ccccc4n3)CC2)cccc1[N+](=O)[O-] [compound 107, N-(cis-4-{[4-(dimethylamino)quinazolin-2-yl]amino}cyclohexyl)-N′-(2-methyl-3-nitrophenyl)urea] to Cc1cccc([N+](=O)[O-])c1NC(=O)N[C@H]1CC[C@@H](Nc2nc(N(C)C)c3ccccc3n2)CC1 [compound 110], the IC50 rises from under 50 nM to over 200 nM.

Compared with Cc1cc([N+](=O)[O-])ccc1NC(=O)N[C@H]1CC[C@@H](Nc2nc(N(C)C)c3ccccc3n2)CC1 [compound 108, N-(cis-4-{[4-(dimethylamino)quinazolin-2-yl]amino}cyclohexyl)-N′-(2-methyl-4-nitrophenyl)urea], CN(C)c1nc(N[C@H]2CC[C@@H](NC(=O)Nc3cccc([N+](=O)[O-])c3)CC2)nc2ccccc12 [compound 135] is higher in IC50: under 50 nM for the first, over 200 nM for the second. The first is the more potent here.

First: CN(C)c1nc(N[C@H]2CC[C@@H](NC(=O)Nc3ccc4ccccc4c3)CC2)nc2ccccc12 [compound 112]
Second: CN(C)c1nc(N[C@H]2CC[C@@H](NC(=O)Nc3ccc(F)c(F)c3)CC2)nc2ccccc12 [compound 123, N-(3,4-difluorophenyl)-N′-(cis-4-{[4-(dimethylamino)quinazolin-2-yl]amino}cyclohexyl)urea]
The IC50 of the first is higher: over 200 nM for the first, 50 to 200 nM for the second. The second is the more potent here.

CN(C)c1nc(N[C@H]2CC[C@@H](NC(=O)Nc3ccccc3[N+](=O)[O-])CC2)nc2ccccc12 [compound 113, N-(cis-4-{[4-(dimethylamino)quinazolin-2-yl]amino}cyclohexyl)-N′-(2-nitrophenyl)urea] and CN(C)c1nc(N[C@H]2CC[C@@H](NC(=O)Nc3ccccc3C(C)(C)C)CC2)nc2ccccc12 [compound 117, N-(2-tert-butylphenyl)-N′-(cis-4-{[4-(dimethylamino)quinazolin-2-yl]amino}cyclohexyl)urea] cannot be ordered by IC50: under 50 nM for the first, under 50 nM for the second.

Compared with CN(C)c1nc(N[C@H]2CC[C@@H](NC(=O)Nc3ccccc3Oc3ccccc3)CC2)nc2ccccc12 [compound 115, N-(cis-4-{[4-(dimethylamino)quinazolin-2-yl]amino}cyclohexyl)-N′-(2-phenoxyphenyl)urea], Cc1c(Cl)cccc1NC(=O)N[C@H]1CC[C@@H](Nc2nc(N(C)C)c3ccccc3n2)CC1 [compound 129] is lower in IC50: 50 to 200 nM for the first, under 50 nM for the second. The second is the more potent here.

CSc1cccc(NC(=O)N[C@H]2CC[C@@H](Nc3nc(N(C)C)c4ccccc4n3)CC2)c1 [compound 118] and CCc1cccc(NC(=O)N[C@H]2CC[C@@H](Nc3nc(N(C)C)c4ccccc4n3)CC2)c1 [compound 132, N-(cis-4-{[4-(dimethylamino)quinazolin-2-yl]amino}cyclohexyl)-N′-(3-ethylphenyl)urea] fall in the same range of IC50: 50 to 200 nM for the first, 50 to 200 nM for the second.

First: CN(C)c1nc(N[C@H]2CC[C@@H](NC(=O)Nc3cccc(SC(F)(F)F)c3)CC2)nc2ccccc12 [compound 119]
Second: COC(=O)c1cccc(NC(=O)N[C@H]2CC[C@@H](Nc3nc(N(C)C)c4ccccc4n3)CC2)c1 [compound 128, methyl 3-({[(cis-4-{[4-(dimethylamino)quinazolin-2-yl]amino}cyclohexyl)amino]carbonyl}amino)benzoate]
The IC50 of the first is higher: over 200 nM for the first, 50 to 200 nM for the second. The second is the more potent here.

Compared with CN(C)c1nc(N[C@H]2CC[C@@H](NC(=O)Nc3ccc4c(c3)OCO4)CC2)nc2ccccc12 [compound 120, N-1,3-benzodioxol-5-yl-N′-(cis-4-{[4-(dimethylamino)quinazolin-2-yl]amino}cyclohexyl)urea], CN(C)c1nc(N[C@H]2CC[C@@H](NC(=O)Nc3ccc(F)c(Cl)c3)CC2)nc2ccccc12 [compound 130] is higher in IC50: under 50 nM for the first, 50 to 200 nM for the second. The first is the more potent here.

COc1cc(NC(=O)N[C@H]2CC[C@@H](Nc3nc(N(C)C)c4ccccc4n3)CC2)cc(OC)c1OC [compound 121, N-(cis-4-{[4-(dimethylamino)quinazolin-2-yl]amino}cyclohexyl)-N′-(3,4,5-trimethoxyphenyl)urea] and COc1ccc(NC(=O)N[C@H]2CC[C@@H](Nc3nc(N(C)C)c4ccccc4n3)CC2)cc1OC [compound 124, N-(3,4-dimethoxyphenyl)-N′-(cis-4-{[4-(dimethylamino)quinazolin-2-yl]amino}cyclohexyl)urea] cannot be ordered by IC50: under 50 nM for the first, under 50 nM for the second.

CN(C)c1nc(N[C@H]2CC[C@@H](NC(=O)NCc3ccc(Cl)c(Cl)c3)CC2)nc2ccccc12 [compound 122, N-(3,4-dichlorobenzyl)-N′-(cis-4-{[4-(dimethylamino)quinazolin-2-yl]amino}cyclohexyl)urea] and CN(C)c1nc(N[C@H]2CC[C@@H](NC(=O)NCc3cccc(F)c3)CC2)nc2ccccc12 [compound 134, N-(cis-4-{[4-(dimethylamino)quinazolin-2-yl]amino}cyclohexyl)-N′-(3-fluorobenzyl)urea] fall in the same range of IC50: 50 to 200 nM for the first, 50 to 200 nM for the second.

First: CN(C)c1nc(N[C@H]2CC[C@@H](NC(=O)Nc3cc(F)cc(F)c3)CC2)nc2ccccc12 [compound 125, N-(3,5-difluorophenyl)-N′-(cis-4-{[4-(dimethylamino)quinazolin-2-yl]amino}cyclohexyl)urea]
Second: CN(C)c1nc(N[C@H]2CC[C@@H](NC(=O)Nc3cc(F)cc(C(F)(F)F)c3)CC2)nc2ccccc12 [compound 133]
The IC50 of the first is lower: 50 to 200 nM for the first, over 200 nM for the second. The first is the more potent here.

COc1cc(NC(=O)N[C@H]2CC[C@@H](Nc3nc(N(C)C)c4ccccc4n3)CC2)cc(OC)c1 [compound 126] and Cc1cc(C)cc(NC(=O)N[C@H]2CC[C@@H](Nc3nc(N(C)C)c4ccccc4n3)CC2)c1 [compound 127, N-(cis-4-{[4-(dimethylamino)quinazolin-2-yl]amino}cyclohexyl)-N′-(3,5-dimethylphenyl)urea] fall in the same range of IC50: 50 to 200 nM for the first, 50 to 200 nM for the second.

For COc1ccc(NC(=O)N[C@H]2CC[C@@H](Nc3nc(N(C)C)c4ccccc4n3)CC2)cc1Cl [compound 131, N-(3-chloro-4-methoxyphenyl)-N′-(cis-4-{[4-(dimethylamino)quinazolin-2-yl]amino}cyclohexyl)urea], the IC50 was under 50 nM.
